The values below come from patent US10548894B2, “Combination therapy” (Array BioPharma Inc., priority 2013, dated 2020).

Data set [1] deals with WM-266-4 cells expressing truncated p61-BRAFV600E. As to the kind of experiment: Microscopy imaging assay (viable nuclei count), 72 h. The conditions noted are these: Homo sapiens, WM-266-4 p61 BRafV600E, single agent. The format is cell-based. As for the experimental part:
(§1) Compound stocks are prepared in DMSO at a final concentration of 10 mM.
(§2) A-375 and WM-266-4 cells were purchased from American Type Culture Collection (ATCC). The A-375 cells were cultured in DMEM medium (ATCC) and the WM-266-4 cells were cultured in EMEM medium (ATCC) both supplemented with 10% fetal bovine serum (Gibco) and incubated at 37° C./5% CO2. The cell lines engineered to express commonly occurring alleles indicative of resistance were acquired from Novartis-Emeryville. These resistant models include, A-375 cells expressing mutant MEK1P124L, truncated p61-BRAFV600E, or mutant NRASQ61K, and WM-266-4 cells expressing mutant MEK1C121S, truncated p61-BRAFV600E, or mutant NRASQ61K. These cells were cultured in the appropriate parental medium with selection marker G418 and in the presence of 5 uM LFE158 (MEK mutants) or LIH720 (truncated p61-BRAFV600E).
(§3) For screening, cells were seeded in 80 ul of medium in 384-well plates (Thermo Scientific, cat#4332) at 500 (A-375) or 750 (WM-266-4) cell densities per well using a MultiDrop Combi (Thermo-Fisher) with an 8-channel standard cassette. To promote an even distribution of cells across the entire well, cells were briefly centrifuged at 1000 RPM and incubated at room temperature 30 minutes. All plates were incubated at 37° C., 5% CO2 for 24 h prior to compound addition. Compound stock was freshly prepared in the appropriate culture medium, and added using a PAA robot equipped with a 200n1 pin tool. In a minimum of three replicate wells, single agent and combination effects after 72 hours, were assessed by both quantification of cellular ATP levels via Cell Titer Glo (Promega) according to the manufacturer's protocol and by microscopy imaging. […]
(§4) An automated image analysis pipeline was established using custom-made scripts in the open-source, statistical programming language R, and functions of the BioConductor package EBImage. The goal was to quantify the number of viable nuclei (cells) per well as an approximation for cell viability. […]

Data set [2] concerns A-375 cells expressing truncated p61-BRAFV600E. The data set is described as above. In kind it is cell-based. Particulars: Homo sapiens, A-375 p61 BRafV600E, single agent. As for the experimental part: as §1, §2, §3, §4
In data set [3] the test system is WM-266-4 cells expressing mutant NRASQ61K. The data set is described as above. Particulars: Homo sapiens, WM-266-4 NRASQ61K, single agent. The format is cell-based. The protocol: as §1, §2, §3, §4
Data set [4] concerns WM-266-4 cells expressing truncated p61-BRAFV600E. Description: ATP-based CTG (Cell Titer Glo) cell viability assay, 72 h. Particulars: Homo sapiens, WM-266-4 p61 BRafV600E, single agent. As for the experimental part:
as §1, §2
as §3, with “imaging. For imaging, cells were fixed to the plates and permeabilized with a solution of 10% PFA, 0.3% TX-100 in PBS via a WellMate dispenser with controlled dispensing speeds. Cell nuclei were stained with Hoechst 33342 (H3570, Invitrogen), and all necessary washing steps were performed by a BioTek washer.” for “imaging.”
Background: In ATP-based viability assays light output follows the ATP content of the culture.

Data set [5] concerns A-375 cells expressing truncated p61-BRAFV600E. Described as above. The conditions noted are these: Homo sapiens, A-375 p61 BRafV600E, single agent. As for the experimental part: as §1, §2
as §3, with “imaging. For imaging, cells were fixed to the plates and permeabilized with a solution of 10% PFA, 0.3% TX-100 in PBS via a WellMate dispenser with controlled dispensing speeds. Cell nuclei were stained with Hoechst 33342 (H3570, Invitrogen), and all necessary washing steps were performed by a BioTek washer.” for “imaging.”

Data set [6] concerns WM-266-4 cells expressing mutant NRASQ61K. The data set is described as above. The conditions noted are these: Homo sapiens, WM-266-4 NRASQ61K, single agent. As for the experimental part: as §1, §2
as §3, with “imaging. For imaging, cells were fixed to the plates and permeabilized with a solution of 10% PFA, 0.3% TX-100 in PBS via a WellMate dispenser with controlled dispensing speeds. Cell nuclei were stained with Hoechst 33342 (H3570, Invitrogen), and all necessary washing steps were performed by a BioTek washer.” for “imaging.”

Data set [7] in a line: Clinical dose finding and tolerability (RP2D/MTD) in patients. In kind it is in vivo. An excerpt:
The selection of the starting dose follows the ICH S9 guidelines for choosing a starting a dose for a first-in-human trial conducted in patients with cancer, and is shown in Table 6-2.
Table 3 describes the starting doses and the provisional dose levels of study treatments for the combinations that may be evaluated during this trial. Additional dose levels not currently specified may be enrolled and additional patients may be enrolled at a dose level already tested if such changes are deemed necessary to provide optimal safety and tolerability, pharmacokinetic, and pharmacodynamic data.

The IC50 is the concentration at which inhibition is half-maximal. As for `COC(=O)N[C@@H](C)CNc1nccc(-c2cn(C(C)C)nc2-c2cc(Cl)cc(NS(C)(=O)=O)c2F)n1` [Compound of Formula (I)], the IC50 in data set [1] came to 933 nM; in data set [2], 849 nM; in data set [3], 868 nM; in data set [4], 906 nM; in data set [5], 576 nM; in data set [6] it was 1120 nM. The observed adverse events entry in data set [7] (in clinic, tested at up to 700 mg QD) was “reversible and manageable”. Moreover, the “RP2D (recommended phase II dose)” value in data set [7] (single agent, patients) is reported as 450 mg QD.
